Assay results published in ChEMBL document CHEMBL3044931, “Synthesis and Antimuscarinic Activity of Derivatives of 2-Substituted-1,3-Dioxolanes” (Med Chem Res, 2005).

Columns and labels:
[1] = Antagonist activity at Oryctolagus cuniculus (rabbit) vas deferens M1 receptor after 1 hr; conditions: read-out: pA2 (converted)
[2] = target: Muscarinic acetylcholine receptor M3 (Cavia porcellus) (UniProt Q8VH26); assay: Binding affinity to Cavia porcellus (guinea pig) ileum M3 receptor after 30 min; assay type: tissue-based
Muscarinic acetylcholine receptor M3 (Cavia porcellus), sequence (Q8VH26 1-587): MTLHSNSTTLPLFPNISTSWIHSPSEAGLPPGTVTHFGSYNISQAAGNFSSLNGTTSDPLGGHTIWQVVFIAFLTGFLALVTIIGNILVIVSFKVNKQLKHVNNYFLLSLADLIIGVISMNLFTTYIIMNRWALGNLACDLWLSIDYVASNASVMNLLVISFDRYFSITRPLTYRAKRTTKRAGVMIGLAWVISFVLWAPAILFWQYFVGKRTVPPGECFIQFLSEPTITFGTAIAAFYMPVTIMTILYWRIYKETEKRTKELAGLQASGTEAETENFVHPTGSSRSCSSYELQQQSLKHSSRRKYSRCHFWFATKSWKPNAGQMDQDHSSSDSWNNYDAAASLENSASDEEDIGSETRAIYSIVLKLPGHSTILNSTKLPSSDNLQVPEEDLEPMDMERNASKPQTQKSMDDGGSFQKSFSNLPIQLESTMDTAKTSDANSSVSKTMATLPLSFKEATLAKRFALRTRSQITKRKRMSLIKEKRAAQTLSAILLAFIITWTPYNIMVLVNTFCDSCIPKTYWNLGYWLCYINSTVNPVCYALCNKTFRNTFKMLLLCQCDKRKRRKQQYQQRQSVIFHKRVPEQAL

[3] = Selectivity ratio of pKb for rabbit vas deferens M1 receptor to pKb for guinea pig ileum M3 receptor; assay type: tissue-based
[4] = species: Cavia porcellus; assay: Selectivity ratio of pKb for Cavia porcellus (guinea pig) ileum M3 receptor to pKb for Cavia porcellus (guinea pig) left atria M2 receptor; assay type: tissue-based; conditions: Atrium/Ileum
[5] = target: T1, Muscarinic receptor 2 (Cavia porcellus) (UniProt Q8VH27); assay: Binding affinity to Cavia porcellus (guinea pig) left atria M2 receptor after 2 hr
T1 sequence (whole entry): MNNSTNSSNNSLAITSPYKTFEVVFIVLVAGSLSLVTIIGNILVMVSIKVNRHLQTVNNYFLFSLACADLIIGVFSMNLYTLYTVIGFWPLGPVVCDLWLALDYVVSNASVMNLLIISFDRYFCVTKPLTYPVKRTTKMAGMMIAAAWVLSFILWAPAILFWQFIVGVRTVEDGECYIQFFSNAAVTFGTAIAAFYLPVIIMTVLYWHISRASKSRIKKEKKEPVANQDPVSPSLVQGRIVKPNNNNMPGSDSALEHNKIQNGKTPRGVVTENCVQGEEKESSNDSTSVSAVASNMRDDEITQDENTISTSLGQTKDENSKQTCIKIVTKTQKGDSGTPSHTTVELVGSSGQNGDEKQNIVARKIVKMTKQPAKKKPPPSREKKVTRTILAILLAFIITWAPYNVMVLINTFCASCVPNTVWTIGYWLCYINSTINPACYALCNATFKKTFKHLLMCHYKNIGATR

[6] = species: Oryctolagus cuniculus; assay: Binding affinity to Oryctolagus cuniculus (rabbit) vas deferens M1 receptor after 1 hr
[7] = Selectivity ratio of pKb for rabbit vas deferens M1 receptor to pKb for guinea pig left atria M2 receptor

pKb [2] | pKb [5] | pKb [6] | Ratio pKb [7] | Structure (SMILES) | Kb [1] | Ratio pKb [3] | Ratio pKb [4]
– | – | – | – | CN(C)[C@H]1CO[C@@H](C(c2ccccc2)c2ccccc2)OC1 | 6.17 nM | – | –
– | – | – | – | CN(C)[C@H]1CO[C@H](C(c2ccccc2)c2ccccc2)OC1 | 389 nM | – | –
6.72 | 7.11 | 7.15 | 1 | CN(C)CC1COC(c2ccccc2)(c2ccccc2)O1 (configuration not stated) | – | 3 | 0.4
6.67 | 6.56 | 6.9 | 2 | CN(C)C[C@@H]1CO[C@@H](C(c2ccccc2)c2ccccc2)O1 | – | 2 | 1
6.07 | 6.62 | 7.31 | 5 | CN(C)C[C@@H]1CO[C@H](C(c2ccccc2)c2ccccc2)O1 (relative stereo) | – | 17 | 0.3
6.44 | 6.48 | 6.35 | 0.7 | C[C@@H]1OC(c2ccccc2)(c2ccccc2)O[C@@H]1CN(C)C (relative stereo) | – | 0.8 | 0.9
6.71 | 6.71 | 6.87 | 1 | C[C@H]1OC(c2ccccc2)(c2ccccc2)O[C@@H]1CN(C)C (relative stereo) | – | 1 | 1
